The subject of series [1] is Plasmodium falciparum. The series can be described thus: NOVARTIS: Inhibition of Plasmodium falciparum W2 (drug-resistant) proliferation in erythrocyte-based infection assay. The conditions noted are these: Plasmodium falciparum, W2; read-out: EC50. It is filed as functional, organism-based.
Series [2] is described as follows: NOVARTIS: Cytotoxicity against human hepatocellular carcinoma cell line (Huh7). It is filed as toxicity, cell-based, Huh-7. The note with it: Huh7 cells (hepatocellular carcinoma cell line).
For series [3], the system named is Plasmodium falciparum. The series can be described thus: NOVARTIS: Inhibition of Plasmodium falciparum 3D7 (drug-susceptible) proliferation in erythrocyte-based infection assay. It is filed as functional, organism-based. The conditions noted are these: Plasmodium falciparum, 3D7.

As a reminder, the EC50 is the concentration giving half of the maximal effect. In general, CC50 refers to the concentration that lowers cell viability or growth by half. As to `Nc1nc(Nc2cccc(Cl)c2)n[nH]1`, the EC50 with Plasmodium falciparum [1] turned out to be 958 nM; in the series with Plasmodium falciparum [3], 1680 nM. This compound also registered a CC50 in series [2] greater than 100000 nM.
On the same counts, the results for `Cc1ccc(-c2cc3c(nn2)-c2ccccc2C3=O)cc1` are 799 nM, 2000 nM and 83200 nM.
On the same counts, the results for `N=C(N)c1ccc(OCCCOc2ccc(C(=N)N)cc2)cc1` are 59.5 nM, 75.5 nM and greater than 6250 nM.
Regarding `CCn1c2c(c(=N)c3ccccc31)CCC2`, the EC50 with Plasmodium falciparum [1] turned out to be 954 nM; with Plasmodium falciparum [3], 341 nM. The same compound yielded a CC50 in series [2] greater than 100000 nM.
The like results for `CC(C)(C)C1CCc2[nH]c3ccccc3c(=O)c2C1` (configuration not stated) were, in that order, 976 nM, 852 nM and greater than 100000 nM.
On the same counts, the results for `C(=NNc1nc2ccccc2[nH]1)c1cccc(Oc2ccccc2)c1` are 962 nM, 302 nM and greater than 100000 nM.
Consider `CN(C)c1ccc(/C=C/c2nc(=O)c3ccccc3o2)cc1`, for which the EC50 was 93.6 nM in the series with Plasmodium falciparum [1] and 130 nM in the series on Plasmodium falciparum [3]. In addition, in series [2], the CC50 was greater than 10000 nM.
The like results for `COc1cc2cc(C(=O)Nc3ccccc3)c(N)nc2cc1OC` were, in that order, 964 nM, 409 nM and greater than 100000 nM.
With `O=C(Nc1ccc(-c2nc3ccccc3[nH]2)cc1)c1ccc(-c2cccc([N+](=O)[O-])c2)o1`, the EC50 in the series on Plasmodium falciparum [1] was determined as 924 nM; in the series on Plasmodium falciparum [3] it was 2240 nM. In series [2], this compound came in with a CC50 greater than 100000 nM.
Take `Cc1cc(OC(C)C(=O)N2CCc3ccccc32)ccc1Cl` (configuration not stated): the EC50 with Plasmodium falciparum [1] was found to be 926 nM; with Plasmodium falciparum [3], 897 nM. In series [2], this compound showed a CC50 greater than 100000 nM.
The like results for `O=[N+]([O-])c1ccc(-c2ccc(C=NNc3nc(Nc4ccccc4)nc(Nc4ccccc4)n3)o2)cc1` were, in that order, 933 nM, 875 nM and greater than 100000 nM.
Consider `Cc1cccn2c(NCc3ccccc3)c(-c3ccccc3OC(=O)C(C)Cl)nc12` (configuration not stated), for which the values for the EC50 in the series with Plasmodium falciparum [1] and with Plasmodium falciparum [3] were 925 nM and 764 nM, respectively. This compound also registered a CC50 in series [2] greater than 100000 nM.
On the same counts, the results for `Cc1ccn2c(NC(C)(C)CC(C)(C)C)c(-c3ccccc3OC(=O)c3ccc(Cl)cc3)nc2c1` are 77.8 nM, 1210 nM and greater than 8270 nM.
On the same counts, the results for `COc1cc(C=C(C#N)c2nc3ccccc3[nH]2)ccc1OCc1ccccc1F` are 937 nM, 1380 nM and greater than 100000 nM.
`Cc1ccc2cc(C)c(Nc3ccc(Cl)cc3)nc2c1`: the figures for the EC50 in the series with Plasmodium falciparum [1] and in the series with Plasmodium falciparum [3] were 570 nM and 426 nM, respectively. In series [2], this compound gave a CC50 of 61000 nM.
In the case of `Cn1nc(C(=O)NCc2ccccc2)c2c1CCN(Cc1cccc(O)c1)C2`, the values for the EC50 with Plasmodium falciparum [1] and with Plasmodium falciparum [3] were 935 nM and greater than 6500 nM, respectively. The same compound returned a CC50 in series [2] greater than 100000 nM.
The like results for `CN(C)CCCNc1ncnc2c1[nH]c1ccccc12` were, in that order, 934 nM, 233 nM and greater than 100000 nM.
With `Oc1ccc(Br)cc1C=NNc1nc2ccccc2[nH]1`, the EC50 in the series on Plasmodium falciparum [1] was determined as 504 nM; in the series on Plasmodium falciparum [3], 536 nM. Moreover, the half-maximal cytotoxic concentration (CC50) in series [2] came out at 54000 nM.
On the same counts, the results for `N#Cc1c(-c2ccccc2)cc(N2CCN(C3CCCCC3)CC2)n2c1nc1ccccc12` are 932 nM, 234 nM and greater than 100000 nM.
The like results for `COc1ccc(C2C(C(=O)Nc3cccc(Cl)c3)c3ccccc3C(=O)N2C2CCCCC2)cc1` (configuration not stated) were, in that order, 930 nM, 1550 nM and greater than 100000 nM.
The like results for `CCN1CCC(N2CCC(n3c(Cc4ccccc4OC)nc4cc(F)ccc43)CC2)CC1` were, in that order, 350 nM, 413 nM and 37700 nM.
For `C=CCc1cccc(C=NNc2nc3ccccc3[nH]2)c1O`, the results for the EC50 in the series with Plasmodium falciparum [1] and in the series on Plasmodium falciparum [3] were 928 nM and 657 nM, respectively. In series [2], this compound had a CC50 greater than 100000 nM.
Consider `OC(CN1CCOCC1)Cn1c2ccc(Br)cc2c2cc(Br)ccc21` (configuration not stated), for which the values for the EC50 in the series on Plasmodium falciparum [1] and with Plasmodium falciparum [3] were 440 nM and 991 nM, respectively. Besides, in series [2], the CC50 is 47400 nM.
On to `Cc1ccc(Cn2c(C)c3cnn(CC(=O)O)c(=O)c3c2C)cc1`, for which the EC50 in the series with Plasmodium falciparum [1] is 928 nM; in the series with Plasmodium falciparum [3], greater than 9010 nM. In series [2], this compound came in with a CC50 greater than 100000 nM.
On the same counts, the results for `O=C(Cn1c2ccccc2c(=O)c2ccccc21)Nc1ccc(Cl)cc1C(=O)c1ccccc1` are 925 nM, 817 nM and greater than 100000 nM.
Consider `C=C[C@H]1CN2CC[C@H]1C[C@@H]2[C@@H](OC(=O)CCCCl)c1ccnc2ccccc12`, for which the EC50 in the series on Plasmodium falciparum [1] came out at 96.8 nM; in the series with Plasmodium falciparum [3], 49 nM. In series [2], this compound registered a CC50 greater than 10000 nM.
The like results for `COc1cccc(C2C(C(=O)Nc3ccccc3)=C(C)N=c3sc(=Cc4c[nH]c5ccccc45)c(=O)n32)c1` (configuration not stated) were, in that order, 964 nM, 2470 nM and greater than 100000 nM.
As for `CC(=O)N(C1=C(N2CCOCC2)C(=O)c2ccccc2C1=O)c1ccc(C(C)C)c(C)c1`, the concentration for a half-maximal effect (EC50) is 88.1 nM in the series with Plasmodium falciparum [1] and 25.6 nM in the series with Plasmodium falciparum [3]. In series [2], this compound came in with a CC50 of 9150 nM.
On the same counts, the results for `C=CC1CN2CCC1CC2[C@H](c1ccnc2ccccc12)S(=O)(=O)O` (some centres not stated) are 97.1 nM, 152 nM and greater than 10000 nM.
The like results for `COc1ccccc1C(c1nnnn1Cc1ccc(F)cc1)N1CCN(C)CC1` (configuration not stated) were, in that order, 970 nM, 11900 nM and greater than 100000 nM.
On the same counts, the results for `Brc1ccc2[nH]c3c(NCCCN4CCOCC4)ncnc3c2c1` are 957 nM, 359 nM and greater than 98700 nM.
As to `COc1cccc(C(=O)C[n+]2cc(-c3ccc(Cl)cc3)n3c2CCC3)c1`, the figures for the EC50 in the series with Plasmodium falciparum [1] and with Plasmodium falciparum [3] were 975 nM and 1740 nM, respectively. The CC50 in series [2] is greater than 100000 nM.
In the case of `CCCCCCOc1ccc(NC(=O)c2cccs2)cc1`, the EC50 was 972 nM in the series with Plasmodium falciparum [1] and 396 nM in the series on Plasmodium falciparum [3]. The compound also returned a CC50 in series [2] greater than 100000 nM.
On the same counts, the results for `CCOC(=O)c1cc(-c2ccc(C)cc2)n(CCC(=O)Nc2cccc(C(F)(F)F)c2)c1C` are 327 nM, 823 nM and 33700 nM.
On the same counts, the results for `Cc1cc(N2CCN(CC=Cc3ccccc3)CC2)n2c(nc3ccccc32)c1C#N` are 942 nM, 657 nM and greater than 100000 nM.
Regarding `COc1ccc(C2C(C(=O)Nc3cnc4ccccc4c3)c3ccccc3C(=O)N2Cc2ccc(F)cc2)cc1` (configuration not stated), the EC50 was 941 nM in the series with Plasmodium falciparum [1] and 2170 nM with Plasmodium falciparum [3]. The CC50 in series [2] is greater than 100000 nM.
As for `CCN(CC)CCN(Cc1cc2c(C)cc(C)cc2[nH]c1=O)C(=S)NCCCN(C)C`, the EC50 was 723 nM in the series with Plasmodium falciparum [1] and 1850 nM in the series on Plasmodium falciparum [3]. The CC50 in series [2] is greater than 76300 nM.
The like results for `COc1cncc(-c2cncc(N3CCN(c4ccncc4)CC3)n2)c1` were, in that order, 94.7 nM, 80.4 nM and greater than 10000 nM.
On the same counts, the results for `CCCCCCN(C(=O)COCc1ccccc1)C(CC)c1nc2ccccc2c(=O)n1-c1cccc(Cl)c1` (configuration not stated) are 75.8 nM, 42.2 nM and greater than 7770 nM.
In the case of `COc1ccc(C(=O)NC(c2ccccc2Cl)c2cc(Cl)c3cccnc3c2O)cc1` (configuration not stated), the results for the EC50 in the series with Plasmodium falciparum [1] and in the series with Plasmodium falciparum [3] were 833 nM and 2370 nM, respectively. The compound further came in with a CC50 in series [2] greater than 87000 nM.
`Cc1c(/C=C2\SC(=Nc3ccccc3F)N(C3CCCCC3)C2=O)c2ccccc2n1CC(N)=O`: the EC50 with Plasmodium falciparum [1] was 961 nM; with Plasmodium falciparum [3], 301 nM. Further, the CC50 in series [2] was greater than 100000 nM.
The like results for `O=C(CC1N=C2c3ccccc3N=C(SCc3cccc(F)c3)N2C1=O)NCc1cccs1` (configuration not stated) were, in that order, 960 nM, 1190 nM and greater than 100000 nM.
The like results for `Cc1cc(Cl)ccc1NC(=O)c1ccccc1[N+](=O)[O-]` were, in that order, 930 nM, 2070 nM and greater than 100000 nM.
For the compound `COc1ccc(N2C(=O)C3C(C2=O)C2(c4ccccc4)C(=O)C3(c3ccccc3)C(c3ccc4c(c3)OCO4)=C2c2ccc3c(c2)OCO3)c([N+](=O)[O-])c1` (configuration not stated), the EC50 with Plasmodium falciparum [1] was 938 nM; in the series on Plasmodium falciparum [3], 1160 nM. Also, the CC50 in series [2] was greater than 100000 nM.
On the same counts, the results for `CCCCCCCCCCCC(=O)Oc1ccccc1-c1nc2ccccn2c1NC(C)(C)CC(C)(C)C` are 93.6 nM, 1260 nM and greater than 10000 nM.
The like results for `COc1ccc(OCC(=O)Nc2cccc(-c3nc4ncccc4o3)c2)cc1` were, in that order, 935 nM, 1470 nM and greater than 100000 nM.
On the same counts, the results for `CCCCCc1ccc(C(=O)Oc2ccccc2-c2nc3cc(C)ccn3c2NC(C)(C)CC(C)(C)C)cc1` are 93.4 nM, 739 nM and greater than 10000 nM.
Take `CCSc1nc2sc3c(c2c(=O)n1CC)CCN(C)C3`: the EC50 in the series with Plasmodium falciparum [1] came to 923 nM; in the series with Plasmodium falciparum [3], 1410 nM. The compound further came in with a CC50 in series [2] greater than 100000 nM.
As for `Cc1cccc(N2CCN(c3nc4ccccc4c4nnc(C)n34)CC2)c1C`, the EC50 came to 943 nM with Plasmodium falciparum [1] and 4400 nM in the series on Plasmodium falciparum [3]. Besides, the CC50 in series [2] is greater than 100000 nM.
On to `Cc1ccc(NC(=O)C2CSC(c3cccc(F)c3)N2C(=O)c2ccc(C(C)(C)C)cc2)cc1C` (configuration not stated), for which the EC50 came out at 8 nM in the series on Plasmodium falciparum [1] and 604 nM in the series with Plasmodium falciparum [3]. The same compound gave a CC50 in series [2] of 848 nM.
The like results for `COc1ccc(NC(=O)C2=C(C)Nc3c(C(=O)Nc4ccc(C)cc4)cnn3C2c2cccc(Cl)c2)cc1` (configuration not stated) were, in that order, 924 nM, 2510 nM and greater than 100000 nM.
The like results for `COc1ccc(OC)c(-c2ccc(O)c(CNC3CCCCCC3)c2)c1` were, in that order, 97.5 nM, 364 nM and greater than 10000 nM.
On to `C=Cc1cc2ccccc2c2cc3c(cc12)C[N+](C)(C)C3`, for which the concentration giving a half-maximal response (EC50) in the series on Plasmodium falciparum [1] turned out to be 974 nM; with Plasmodium falciparum [3], 654 nM. Moreover, the CC50 in series [2] was greater than 100000 nM.
The like results for `CCCCN(CCCC)S(=O)(=O)c1ccc(NC(=O)c2ccco2)cc1` were, in that order, 637 nM, 1420 nM and greater than 65700 nM.

These data come from ChEMBL document CHEMBL1156829 (Proc Natl Acad Sci U S A, 2008).
